Read-outs that look alike come from different tables or passages of the source.
How the values were obtained:
[1] = Body weight and tolerability in HCC PDX models; format: in vivo; details: LI0612 and LI1078 models
Description: Two HCC patient-derived tumor xenograft (PDX) mouse models were established by directly inoculated subcutaneously with primary human HCC tumor tissues into female BABL/c nude mice. Briefly, each mouse (8-10 weeks old) was purchased from Shanghai Laboratory Animal Center (SLAC). All the animal experiments were performed according to the guidelines approved by the Institutional Animal Care and Use Committee (IACUC). The treatment was started when the average size reached about 180 mm^3. Mice were allocated randomly into four experiment groups (12 animals per group) according to their tumor sizes. […]. The tumor size and body weight were measured twice weekly. The length, width, and height of tumors were measured with a caliper. The tumor volume was calculated as L×W×H and expressed in mm^3. The percentage of tumor growth inhibition (% TGI=100%−(VTi−VT0)/(VCi−VC0)*100%) was calculated for evaluating anti-tumor efficacy. VTi, mean tumor size in treatment group on the Day i; VT0, mean tumor volume in treatment group on Day 0; VCi, mean tumor size in vehicle group on Day i; VC0, mean tumor size in vehicle group on Day 0.
Mice with subcutaneously established tumor tissues were randomly grouped and treated with vehicle or Compound Mat doses of 3, 10 and 30 mg/kg once daily by oral administration for 14 days. […]. […]. […]

TPR-MET xenografts = test: animal or person
Description: Nude mice bearing established TPR-MET xenografts were treated with Compound Mat doses of 0.1, 0.5, 0.75, 1, 2, 3, or 10 mg/kg. Three hours post dose, tumors were excised and flash frozen in liquid nitrogen. Tumors were then homogenized in lysis buffer containing protease and phosphatase inhibitors. Lysates were then processed per the SDS-PAGE and Immunoblotting protocol.
Tumors were harvested 3 hours post dose and tumor lysates prepared for analysis by SDS-PAGE and immunoblot using antibodies to phospho-Gab1 and β-actin. Phospho-Gab1 levels were quantified using a chemiluminescent imaging system.

[2] = Phase 1 Study 20101132 preliminary PK analysis; details: human, in vivo
Description: (§1) Safety is assessed according to Common Terminology Criteria for Adverse Events (CTCAE) v4.0 criteria and the DLT (dose limiting toxicity) window is 28 days. Dose escalation is proceeding with a modified 3+3+3 design, which defines the MTD (maximum tolerated dose) to have been exceeded when ≥3 subjects in a cohort experience a DLT.
Dose escalation consists of up to 8 cohorts of 3 to 9 evaluable subjects each. Initially, up to 4 subjects may enroll into a cohort. […] At least 6 subjects will be treated at the MTD. An expansion cohort of up to 20 subjects at the MTD (determined in the dose escalation portion) will be considered to obtain further safety, PK, and efficacy data.

[3] = Phase 1 Study 20101132 safety; format: in vivo
Description: Eligible subjects have disease that is refractory or resistant to standard treatments or disease for which no standard therapy exists.
as §1
Enrollment is proceeding as follows: if no DLT is observed within the first 28 days in the initial 3 to 4 subjects of a cohort, dose escalation to the next higher dose level cohort will occur. If 1 DLT is observed, 3 additional subjects will be enrolled at the same dose level for a total of at least 6 subjects. If no further DLT(s) are observed, escalation to the next higher dose level cohort will occur. If a second DLT is observed, 3 additional subjects will be enrolled at the same dose level for a total of at least 9 subjects. If no further DLTs are observed, dose escalation to the next higher dose level will occur. If ≥3 DLTs are observed in the first 3 to 9 subjects, then enrolment stops at the third DLT observation and enrolment into a cohort at a lower dose level will be considered.
Dose escalation consists of up to 8 cohorts of 3 to 9 evaluable subjects each. Initially, up to 4 subjects may enroll into a cohort. The planned cohort dose levels are as follows: QD cohorts, cohort 1, 25 mg; cohort 2, 50 mg; cohort 3, 100 mg; cohort 3A, 150 mg; cohort 4, 200 mg; cohort 5, 300 mg; cohort 6, 400 mg; and cohort 7, 500 mg; BID cohorts, cohort B1 100 mg, cohort B2 150 mg, cohort B3 200 mg. The MTD is defined as the highest dose level with an observed incidence of DLT in <33% of subjects enrolled in a cohort. At least 6 subjects will be treated at the MTD. An expansion cohort of up to 20 subjects at the MTD (determined in the dose escalation portion) will be considered to obtain further safety, PK, and efficacy data.
The 300-mg dose was identified as an MTD for QD dosing schedule and the recommended phase 2 dose. Twice daily dose escalation is currently ongoing and the MTD has not yet been determined as of the data cutoff date. As of the data cutoff date of 23 Jul. 2014, tumor-response data were available from 84 subjects in Study 20101132, including data on 62 subjects with >1 post-screening Response Evaluation Criteria in Solid Tumors (RECIST) tumor measurement by central read (22 subjects had screening data only). […] Of these 7 responders, 6 had gastric, gastroesophageal junction (GEJ) or esophageal adenocarcinoma with evidence of MET amplification identified by fluorescence in-situ hybridization assay performed by an experienced local laboratory per regulatory guideline.

[4] = 28-day rat toxicology study; details: in vivo

## COCCOc1cnc2ccn([C@H](C)c3nnc4c(F)cc(-c5cnn(C)c5)cn34)c(=O)c2c1 [Compound M, 6-{(1R)-1-[8-fluoro-6-(1-methyl-1H-pyrazol-4-yl)[1,2,4]triazolo[4,3-a]pyridin-3-yl]ethyl}-3-(2-methoxyethoxy)-1,6-naphthyridin-5(6H)-one]
[1]; 3, 10, 30 mg/kg once daily, 14 days
  body weight: no significant body weight changed or lost
[1]; all dose levels
  tolerability: well tolerated
TPR-MET xenografts; Mus musculus, 3 h, read-out: inhibition of phospho-Gab1
  inhibition at 1 mg/kg: > 90%
TPR-MET xenografts; TPR-Met xenograft model
  average exposure shown to inhibit c-Met activity by 90%: 0.154 µg/mL
[2]; oral, 43 subjects, once daily doses of 25 to 400 mg, tablet formulation, read-out: mean estimates of T1/2,z
  half-life: 4.6 to 7.4 h
[2]; oral, cohort 3 (100 mg) after 28 days of dosing, read-out: human mean trough concentration
  concentration at 28 days: 131 ng/mL
[2]; 24 subjects, daily oral doses of up to 200 mg, as of 20 Aug. 2012, read-out: Mean estimates of elimination half-life
  half-life: 4.6 to 6.9 h
[3]; QD dosing schedule
  MTD and recommended phase 2 dose: 300 mg
[3]; human, in vivo
  adverse event: anemia: 21.1%
  adverse event: aspartate aminotransferase (AST) increased: 10%
  adverse event: back pain: 15.6%
  adverse event: constipation: 23.3%
  adverse event: decreased appetite: 16.7%
  adverse event: diarrhea: 15.6%
  adverse event: dizziness: 10%
  adverse event: dry skin: 12.2%
  adverse event: dyspnea: 15.6%
  adverse event: fatigue: 40%
  adverse event: headache: 64.4%
  adverse event: hypoalbuminemia: 20%
  adverse event: myalgia: 12.2%
  adverse event: nausea: 43.3%
  adverse event: peripheral edema: 18.9%
  adverse event: rash: 11.1%
  adverse event: vomiting: 26.7%
[4]
  AUC(0-t): 82400 ng·h/mL
  Cmax: 12300 ng/mL

— patent US10328062B2, “Biomarkers and use of MET inhibitor for treatment of cancer” (AMGEN, INC., priority 2014, dated 2019)
